{
  "source": "patent US20190166835A1",
  "about": "“Fungal Trisaccharide Ester Compounds and Use Thereof in Preparing Agents for Preventing and Controlling Plant Fungal Diseases” (SOUTH CHINA BOTANICAL GARDEN, CHINESE ACADEMY OF SCIENCES, priority 2017, published 2019)",
  "key": {"Penicillium italicum": {"system": "Penicillium italicum", "assay": "agar diffusion test, in vitro inhibitory activity", "format": "cell-based", "conditions": "500 μg per 6 mm filter paper, PDA, 28° C., 72 or 96 hours", "excerpt": "(§1) Experiment of in vitro inhibitory activities of the trisaccharide ester compounds 1 to 5 obtained in embodiment 2 against common plant pathogenic fungi of twelve genus.\n(§2) The fungi used in the experiments include: 1) Alternaria solani (causing early blight of tomatoes), 2) Botryospuaeria berengeriana (causing ring rot of apples), 3) Botrytis cinerea (causing grey mould of tomatoes), 4) Colletotrichum gloeosporioides (causing anthracnose of mangos), 5) Curvularia lunata (which will infect bananas), 6) Fusarium oxysporium (causing fusarium wilt of bananas and watermelons), 7) Geotrichum citri-aurantii (causing sour rot of citrus), 8) Helminthosporium maydis (causing southern corn leaf blight), 9) Penicillium italicum (causing blue mould of citrus), 10) Peronophythora litchii (which will infect litchi), 11) Rhizoctonia solani (causing sheath blight of rice), and 12) Ustilaginoidea virens (causing false smut of rice).\n(§3) The antifungal activities of the compounds 1 to 5 were determined by the agar diffusion test. The fungi were activated and respectively seeded onto petri dishes containing PDA solid culture medium, and spread uniformly with T-shaped spreaders. Each compound was dissolved in methanol to give a 50 mg/mL solution. 10 μL of the solution was then added dropwise onto a filter paper (with a diameter of 6 mm) and let dry in the clean bench such that each filter paper contained 500 μg of the compound eventually. The filter papers were then pressed to the pertri dishes mentioned above and left to incubate in dark at 28° C. for 72 or 96 hours, and then the inhibition widths were measured (a inhibition width refers to an average diameter of the zones of inhibition), wherein filter papers containing a same volume of methanol were used as negative controls."}, "Helminthosporium maydis": {"system": "Helminthosporium maydis", "assay": "agar diffusion test, in vitro inhibitory activity", "format": "cell-based", "conditions": "500 μg per 6 mm filter paper, PDA, 28° C., 72 or 96 hours", "excerpt": "as §1, §2, §3"}, "Rhizoctonia solani": {"system": "Rhizoctonia solani", "assay": "agar diffusion test, in vitro inhibitory activity", "format": "cell-based", "conditions": "500 μg per 6 mm filter paper, PDA, 28° C., 72 or 96 hours", "excerpt": "as §1, §2, §3"}, "Peronophythora litchii": {"system": "Peronophythora litchii", "assay": "agar diffusion test, in vitro inhibitory activity", "format": "cell-based", "conditions": "500 μg per 6 mm filter paper, PDA, 28° C., 72 or 96 hours", "excerpt": "as §1, §2, §3"}, "Ustilaginoidea virens": {"system": "Ustilaginoidea virens", "assay": "agar diffusion test, in vitro inhibitory activity", "format": "cell-based", "conditions": "500 μg per 6 mm filter paper, PDA, 28° C., 72 or 96 hours", "excerpt": "as §1, §2, §3"}, "[1]": {"system": "Geotrichum citri-aurantii", "assay": "agar diffusion test, in vitro inhibitory activity", "format": "cell-based", "conditions": "500 μg per 6 mm filter paper, PDA, 28° C., 72 or 96 hours", "excerpt": "as §1, §2, §3"}, "Alternaria solani": {"system": "Alternaria solani", "assay": "agar diffusion test, in vitro inhibitory activity", "format": "cell-based", "conditions": "500 μg per 6 mm filter paper, PDA, 28° C., 72 or 96 hours", "excerpt": "as §1, §2, §3"}, "Fusarium oxysporium": {"system": "Fusarium oxysporium", "assay": "agar diffusion test, in vitro inhibitory activity", "format": "cell-based", "conditions": "500 μg per 6 mm filter paper, PDA, 28° C., 72 or 96 hours", "excerpt": "as §1, §2, §3"}, "Botrytis cinerea": {"system": "Botrytis cinerea", "assay": "agar diffusion test, in vitro inhibitory activity", "format": "cell-based", "conditions": "500 μg per 6 mm filter paper, PDA, 28° C., 72 or 96 hours", "excerpt": "as §1, §2, §3"}, "[2]": {"system": "Colletotrichum gloeosporioides", "assay": "agar diffusion test, in vitro inhibitory activity", "format": "cell-based", "conditions": "500 μg per 6 mm filter paper, PDA, 28° C., 72 or 96 hours", "excerpt": "as §1, §2, §3"}, "[3]": {"system": "Botryospuaeria berengeriana", "assay": "agar diffusion test, in vitro inhibitory activity", "format": "cell-based", "conditions": "500 μg per 6 mm filter paper, PDA, 28° C., 72 or 96 hours", "excerpt": "as §1, §2, §3"}, "Curvularia lunata": {"system": "Curvularia lunata", "assay": "agar diffusion test, in vitro inhibitory activity", "format": "cell-based", "conditions": "500 μg per 6 mm filter paper, PDA, 28° C., 72 or 96 hours", "excerpt": "as §1, §2, §3"}, "[4]": {"system": "pathogenic fungi in the postharvest storage of citrus fruits", "assay": "preservation of citrus in postharvest storage (infection index)", "format": "in vivo, citrus reticulata blanco cv.shiyueju", "conditions": "soaked 5 minutes, stored at 25° C. for 15 days", "procedure": "Experiment of the trisaccharide ester extract obtained in embodiment 2 in the preservation of citrus in postharvest storage Samples for the experiment: the trisaccharide ester extract (containing the compounds 1 to 4, with a mass ratio of about 60:35:4:1) obtained in embodiment 2 was dissolved in a small volume of ethanol and diluted with water to give treating solutions (200, 400 and 600 mg/L). The citrus fruits were soaked in the treating solutions for 5 minutes and left to dry. The fruits were then put in plastic baskets (the plastic baskets were surface-sterilized with 75% ethanol and left to dry in advance), sealed in polyethylene bags with a thickness of 0.02 mm, and stored at 25° C. for 15 days. The fruits were observed and their infection indexes were recorded. Calculation of the infection index: infection index=Σ(infection level×amount of fruits of the level)/([…]×total amount of fruits)×100%; infection level: 0 refers to “no obvious infection”, 1 refers to “slight infection”, 2 refers to “infection area smaller than or equal to ¼ of fruit surface”; 3 refers to “infection area larger than ¼ and smaller than ½ of fruit surface”, and 4 refers to “infection area larger than or equal to ½ of fruit surface”. Three replicates were set for each treating solution, and 60 fruits for each replicate. Fruits for the experiments: citrus reticulata blanco cv.shiyueju, harvested from Conghua Orchard."}},
  "data": [
    {"smiles": "CCC(C)CCCCCCC(=O)O[C@@H]1C(CO[C@H]2OC(CO)[C@H](O)C(O)C2O)O[C@H](O[C@H]2OC(COC(C)=O)[C@@H](O)C(O)C2O)C(OC(=O)CCC(C)CC)C1OC(=O)C(C)CC", "note": "(single isomer, unassigned) [Compound 5, 6-O-β-L-mannosyl-3-O-(2-methylbutyryl)-4-O-(8-methyldecanoyl)-2-O-(4-methylhexanoyl)-6′-O-acetyltrehalose]", "values": [
      {"measurement": "Zone of inhibition", "setting": "Penicillium italicum", "value": 14, "unit": "mm"},
      {"measurement": "Zone of inhibition", "setting": "Helminthosporium maydis", "value": 18, "unit": "mm"},
      {"measurement": "Zone of inhibition", "setting": "Rhizoctonia solani", "value": 12, "unit": "mm"},
      {"measurement": "Zone of inhibition", "setting": "Peronophythora litchii", "value": 10, "unit": "mm"},
      {"measurement": "Zone of inhibition", "setting": "Ustilaginoidea virens", "value": 16, "unit": "mm"},
      {"measurement": "Zone of inhibition", "setting": "[1]", "value": 15, "unit": "mm"},
      {"measurement": "Zone of inhibition", "setting": "Alternaria solani", "value": 10, "unit": "mm"},
      {"measurement": "Zone of inhibition", "setting": "Fusarium oxysporium", "value": 8, "unit": "mm"},
      {"measurement": "Zone of inhibition", "setting": "Botrytis cinerea", "value": 9, "unit": "mm"},
      {"measurement": "Zone of inhibition", "setting": "[2]", "value": 8, "unit": "mm"},
      {"measurement": "Zone of inhibition", "setting": "[3]", "value": 8, "unit": "mm"},
      {"measurement": "Zone of inhibition", "setting": "Curvularia lunata", "value": 16, "unit": "mm"}
    ]},
    {"smiles": "CCC(C)CCCCCCC(=O)O[C@@H]1C(CO[C@H]2OC(CO)[C@H](O)[C@H](O)C2O)O[C@H](O[C@H]2OC(CO)[C@@H](O)[C@H](O)C2O)C(OC(=O)CCC(C)CC)[C@H]1OC(=O)C(C)CC", "note": "(stereo partly drawn) [Compound 1, 6-O-β-L-mannosyl-3-O-(2-methylbutyryl)-4-O-(8-methyldecanoyl)-2-O-(4-methylhexanoyl)trehalose]", "values": [
      {"measurement": "Zone of inhibition", "setting": "Penicillium italicum", "value": 20, "unit": "mm"},
      {"measurement": "Zone of inhibition", "setting": "Helminthosporium maydis", "value": 22, "unit": "mm"},
      {"measurement": "Zone of inhibition", "setting": "Rhizoctonia solani", "value": 18, "unit": "mm"},
      {"measurement": "Zone of inhibition", "setting": "Peronophythora litchii", "value": 13, "unit": "mm"},
      {"measurement": "Zone of inhibition", "setting": "Ustilaginoidea virens", "value": 22, "unit": "mm"},
      {"measurement": "Zone of inhibition", "setting": "[1]", "value": 17, "unit": "mm"},
      {"measurement": "Zone of inhibition", "setting": "Alternaria solani", "value": 12, "unit": "mm"},
      {"measurement": "Zone of inhibition", "setting": "Fusarium oxysporium", "value": 10, "unit": "mm"},
      {"measurement": "Zone of inhibition", "setting": "Botrytis cinerea", "value": 15, "unit": "mm"},
      {"measurement": "Zone of inhibition", "setting": "[2]", "value": 12, "unit": "mm"},
      {"measurement": "Zone of inhibition", "setting": "[3]", "value": 16, "unit": "mm"},
      {"measurement": "Zone of inhibition", "setting": "Curvularia lunata", "value": 12, "unit": "mm"}
    ]},
    {"smiles": "CCCCCCCCCC(=O)O[C@@H]1C(CO[C@H]2OC(CO)[C@H](O)[C@H](O)C2O)O[C@H](O[C@H]2OC(CO)[C@@H](O)[C@H](O)C2O)C(OC(=O)CCC(C)CC)[C@H]1OC(=O)C(C)CC", "note": "(stereo partly drawn) [Compound 2, 4-O-decanoyl-6-O-β-L-mannosyl-3-O-(2-methylbutyryl)-2-O-(4-methylhexanoyl)trehalose]", "values": [
      {"measurement": "Zone of inhibition", "setting": "Penicillium italicum", "value": 22, "unit": "mm"},
      {"measurement": "Zone of inhibition", "setting": "Helminthosporium maydis", "value": 18, "unit": "mm"},
      {"measurement": "Zone of inhibition", "setting": "Rhizoctonia solani", "value": 16, "unit": "mm"},
      {"measurement": "Zone of inhibition", "setting": "Peronophythora litchii", "value": 12, "unit": "mm"},
      {"measurement": "Zone of inhibition", "setting": "Ustilaginoidea virens", "value": 20, "unit": "mm"},
      {"measurement": "Zone of inhibition", "setting": "[1]", "value": 15, "unit": "mm"},
      {"measurement": "Zone of inhibition", "setting": "Alternaria solani", "value": 14, "unit": "mm"},
      {"measurement": "Zone of inhibition", "setting": "Fusarium oxysporium", "value": 12, "unit": "mm"},
      {"measurement": "Zone of inhibition", "setting": "Botrytis cinerea", "value": 14, "unit": "mm"},
      {"measurement": "Zone of inhibition", "setting": "[2]", "value": 10, "unit": "mm"},
      {"measurement": "Zone of inhibition", "setting": "[3]", "value": 14, "unit": "mm"},
      {"measurement": "Zone of inhibition", "setting": "Curvularia lunata", "value": 15, "unit": "mm"}
    ]},
    {"smiles": "CCCCCCCC(=O)O[C@@H]1C(CO[C@H]2OC(CO)[C@H](O)[C@H](O)C2O)O[C@H](O[C@H]2OC(CO)[C@@H](O)[C@H](O)C2O)C(OC(=O)CCC(C)CC)[C@H]1OC(=O)C(C)CC", "note": "(stereo partly drawn) [Compound 4]", "values": [
      {"measurement": "Zone of inhibition", "setting": "Penicillium italicum", "value": 18, "unit": "mm"},
      {"measurement": "Zone of inhibition", "setting": "Helminthosporium maydis", "value": 18, "unit": "mm"},
      {"measurement": "Zone of inhibition", "setting": "Rhizoctonia solani", "value": 18, "unit": "mm"},
      {"measurement": "Zone of inhibition", "setting": "Peronophythora litchii", "value": 12, "unit": "mm"},
      {"measurement": "Zone of inhibition", "setting": "Ustilaginoidea virens", "value": 20, "unit": "mm"},
      {"measurement": "Zone of inhibition", "setting": "[1]", "value": 12, "unit": "mm"},
      {"measurement": "Zone of inhibition", "setting": "Alternaria solani", "value": 12, "unit": "mm"},
      {"measurement": "Zone of inhibition", "setting": "Fusarium oxysporium", "value": 10, "unit": "mm"},
      {"measurement": "Zone of inhibition", "setting": "Botrytis cinerea", "value": 10, "unit": "mm"},
      {"measurement": "Zone of inhibition", "setting": "[2]", "value": 14, "unit": "mm"},
      {"measurement": "Zone of inhibition", "setting": "[3]", "value": 10, "unit": "mm"},
      {"measurement": "Zone of inhibition", "setting": "Curvularia lunata", "value": 15, "unit": "mm"}
    ]},
    {"smiles": "CN(C)C(=S)SSC(=S)N(C)C", "note": "[Thiram]", "values": [
      {"measurement": "Infection index", "setting": "[4]; treating solution 200 mg/L", "value": "29.0 ± 1.9", "unit": "%"},
      {"measurement": "Infection index", "setting": "[4]; treating solution 400 mg/L", "value": "31.4 ± 0.9", "unit": "%"},
      {"measurement": "Infection index", "setting": "[4]; treating solution 600 mg/L", "value": "29.2 ± 1.0", "unit": "%"}
    ]}
  ]
}
